T1: LmOpuCA tandem CBS domains (residues 247–371) (Listeria monocytogenes, UniProt Q9KHT9)
T1 sequence (Q9KHT9 247-371): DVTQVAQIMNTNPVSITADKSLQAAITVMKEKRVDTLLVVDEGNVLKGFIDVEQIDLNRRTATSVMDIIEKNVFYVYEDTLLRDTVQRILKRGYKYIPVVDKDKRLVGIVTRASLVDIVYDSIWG


What was measured:
[1] = molecular target: T1, LmOpuCA tandem CBS domains (residues 247–371); experiment: X-ray crystal structure, […] Å, crystal soaked with c-di-AMP; format: binding; settings: one c-di-AMP per dimer, at the dimer interface; pH 9.0
crystal structure = molecular target: the molecule itself; experiment: crystal structure

Molecule | X-ray crystal structure, 2.9 Å, crystal soaked with c-di-AMP [1] | stoichiometry N (crystal structure)
Nc1ncnc2c1ncn2[C@@H]1O[C@@H]2COP(=O)(O)O[C@H]3[C@@H](O)[C@H](n4cnc5c(N)ncnc54)O[C@@H]3COP(=O)(O)O[C@H]2[C@H]1O [c-di-AMP] | We observed clear electron density for one c-di-AMP molecule bound to the OpuCA dimer | –
L. monocytogenes OpuCA (LmOpuCA) tandem CBS domains (residues 247–371) (domain or fragment, UniProt Q9KHT9 247-371, looked up) DVTQVAQIMNTNPVSITADKSLQAAITVMKEKRVDTLLVVDEGNVLKGFIDVEQIDLNRRTATSVMDIIEKNVFYVYEDTLLRDTVQRILKRGYKYIPVVDKDKRLVGIVTRASLVDIVYDSIWG | – | 2
